Laboratory results taken from patent US5081242A, “6-benzoxazinyl- and 6-benzothiazinyl 2,3,4,5-tetrahydropyridazin-3-ones” (Ortho Pharmaceutical Corporation, priority 1991, dated 1992).

Key:
[1] = biological target: cyclic nucleotide phosphodiesterase; experiment: Phosphodiesterase inhibitory activity (cyclic AMP hydrolysis); type: biochemical; details: read-out: IC50 (50% inhibition of cyclic nucleotide phosphodiesterase activity); cyclic AMP 0.10-1.0 μM, pH 7.4
adult mongrel dogs = experiment: Cardiotonic activity in anesthetized dogs (myocardial contractile force, i.v.); type: in vivo; details: Canis lupus familiaris, iv, vs pretreatment control, read-out: CF: Percent increase in cardiac force; for change in vivo at 1.87 mg/kg: i.v. dose 1.87 mpk; for change in vivo at 0.47 mg/kg: i.v. dose 0.47 mpk
Protocol: The cardiotonic activity of the compounds was determined in accordance with the method of Alousi, A. A., et al., J. Cir. Res. 45, 666 (1979). Basically, adult mongrel dogs were anesthetized with sodium pentobarbital and artificially respired. Arterial pressure was recorded via a femoral artery and the pressure pulse used to trigger a cardiotachometer for heart rate. Left ventricular pressure was measured with a Millar catheter and dP/dt was derived. Cardiac output was determined by measuring ascending aortic blood flow with an electromagnetic flow probe and myocardial contractile force was measured with a Walton Brodie strain gauge sutured to the right ventricle. Lead II EKG was also recorded. A standard does of dopamine was administered to assess myocardial responsiveness. Test compounds were administered by i.v. infusion or bolus administration and the effects on cardiovascular parameters were determined. Dose-related effects of the test compound on BP, HR, dP/dt max., C.F. and C.O. were compared to pretreatment control values and expressed as a percentage change.

SMILES | IC50 [1] | change in vivo at 1.87 mg/kg (adult mongrel dogs) | change in vivo at 0.47 mg/kg (adult mongrel dogs) | change in vivo at 0.075 mg/kg (adult mongrel dogs; i.v. dose 0.075 mpk)
CC1CC(=O)NN=C1c1ccc2c(c1)NCCO2 (racemic) [Example 15, 6-(3,4-Dihydro-1,4(2H)-benzoxazin-6-yl)-2,3,4,5-tetrahydro-5-methylpyridazin-3-one] | 8 µM | 125% | – | –
CC(=O)N1CCOc2ccc(C3=NNC(=O)CC3C)cc21 (racemic) [Example 16, 6-(4-Acetyl-3,4-dihydro-1,4(2H)-benzoxazin-6-yl)-2,3,4,5-tetrahydro-5-methylpyridazin-3-one] | 30 µM | 173% | – | –
CC1CC(=O)NN=C1c1ccc2c(c1)N(S(C)(=O)=O)CCO2 (racemic) [Example 17, 6-(3,4-Dihydro-4-methanesulfonyl-1,4(2H)-benzoxazin-6-yl)-2,3,4,5-tetrahydro-5-methylpyridazin-3-one] | 4 µM | 62% | – | –
CC1CNc2cc(C3=NNC(=O)CC3)ccc2O1 (racemic) [Example 18, 6-(3,4-Dihydro-2-methyl-1,4(2H)-benzoxazin-6-yl)-2,3,4,5-tetrahydropyridazin-3-one] | 8 µM | – | 50% | –
CC1CC(=O)NN=C1c1ccc2c(c1)NC(=O)CO2 (racemic) [Example 22, 6-(3,4-Dihydro-3-oxo-1,4(2H)-benzoxazin-6-yl)-2,3,4,5-tetrahydro-5-methylpyridazin-3-one] | 2 µM | – | 136% | –
CC1CC(=O)NN=C1c1ccc2c(c1)N(C)C(=O)CO2 (racemic) [Example 23, 6-(3,4-Dihydro-4-methyl-3-oxo-1,4(2H)-benzoxazin-6-yl)-2,3,4,5-tetrahydro-5-methylpyridazin-3-one] | 8 µM | – | 134% | –
CC1Oc2ccc(C3=NNC(=O)CC3)cc2NC1=O (racemic) [Example 24, 6-(3,4-Dihydro-2-methyl-3-oxo-1,4(2H)-benzoxazin-6-yl)-2,3,4,5-tetrahydropyridazin-3-one] | 14 µM | – | 54% | –
CC1Oc2ccc(C3=NNC(=O)CC3)cc2N(C)C1=O (racemic) [Example 25, 6-(3,4-Dihydro-2,4-dimethyl-3-oxo-1,4(2H)-benzoxazin-6-yl)-2,3,4,5-tetrahydropyridazin-3-one] | 13 µM | – | 31% | –
Cc1cc2c(cc1C1=NNC(=O)CC1C)NC(=O)CO2 (racemic) [Example 30, 6-(3,4-Dihydro-7-methyl-3-oxo-1,4(2H)-benzoxazin-6-yl)-2,3,4,5-tetrahydro-5-methylpyridazin-3-one] | 20 µM | – | 124% | –
Cc1cc2c(cc1C1=NNC(=O)CC1C)N(C)C(=O)CO2 (racemic) [Example 31, 6-(3,4-Dihydro-4,7-dimethyl-3-oxo-1,4(2H)-benzoxazin-6-yl)-2,3,4,5-tetrahydro-5-methylpyridazin-3-one] | 38 µM | – | 33% | –
Cc1cc2c(cc1C1=NNC(=O)CC1)N(C)C(=O)C(C)O2 (racemic) [Example 33, 6-(3,4-Dihydro-2,4,7-trimethyl-3-oxo-1,4(2H)-benzoxazin-6-yl)-2,3,4,5-tetrahydropyridazin-3-one] | 30 µM | – | 8% | –
CC1CC(=O)NN=C1c1ccc2c(c1)OCC(=O)N2 (racemic) [Example 46, 6-(3,4-Dihydro-3-oxo-1,4(2H)-benzoxazin-7-yl)-2,3,4,5-tetrahydro-5-methylpyridazin-3-one] | 0.3 µM | – | – | 130%
CS(=O)(=O)N1CCOc2ccc(C3=NNC(=O)CC3)cc21 [Example 8, 6-(3,4-Dihydro-4-methanesulfonyl-1,4(2H)-benzoxazin-6-yl)-2,3,4,5-tetrahydropyridazin-3-one] | 9.5 µM | 98% | – | –
CN1N=C(c2ccc3c(c2)N(S(C)(=O)=O)CCO3)CCC1=O [Example 9, 6-(3,4-Dihydro-4-methanesulfonyl-1,4(2H)-benzoxazin-6-yl)-2,3,4,5-tetrahydro-2-methylpyridazin-3-one] | 100 µM | 62% | – | –
CCCCCN1N=C(c2ccc3c(c2)N(S(C)(=O)=O)CCO3)CCC1=O [Example 10, 6-(3,4-Dihydro-4-methanesulfonyl-1,4(2H)-benzoxazin-6-yl)-2,3,4,5-tetrahydro-2-pentylpyridazin-3-one] | – | 18% | – | –
C=CCN1N=C(c2ccc3c(c2)N(S(C)(=O)=O)CCO3)CCC1=O [Example 11, 6-(3,4-Dihydro-4-methanesulfonyl-1,4(2H)-benzoxazin-6-yl)-2,3,4,5-tetrahydro-2-(2-propenyl)pyridazin-3-one] | – | 41% | – | –
O=C1CCC(c2ccc3c(c2)NCCO3)=NN1 [Example 12, 6-(3,4-Dihydro-1,4(2H)-benzoxazin-6-yl)-2,3,4,5-tetrahydropyridazin-3-one] | – | 92% | – | –
CC(=O)N1CCOc2ccc(C3=NNC(=O)CC3)cc21 [Example 13, 6-(4-Acetyl-3,4-dihydro-1,4(2H)-benzoxazin-6-yl)-2,3,4,5-tetrahydropyridazin-3-one] | 100 µM | 71% | – | –
COc1ccc(C(=O)N2CCOc3ccc(C4=NNC(=O)CC4)cc32)cc1OC [Example 14, 6-(3,4-Dihydro-4-(3,4-dimethoxyphenylcarbonyl)-1,4(2H)-benzoxazin-6-yl)-2,3,4,5-tetrahydropyridazin-3-one] | 80 µM | 30% | – | –
CC1CNc2cc(C3=NNC(=O)CC3C)ccc2O1 (stereo not drawn) [Example 19, 6-(3,4-Dihydro-2-methyl-1,4(2H)-benzoxazin-6-yl)-2,3,4,5-tetrahydro-5-methylpyridazin-3-one] | 40 µM | – | 98% | –
O=C1CCC(c2ccc3c(c2)NC(=O)CO3)=NN1 [Example 20, 6-(3,4-Dihydro-3-oxo-1,4(2H)-benzoxazin-6-yl)-2,3,4,5-tetrahydropyridazin-3-one] | 630 µM | 71% | – | –
CN1C(=O)COc2ccc(C3=NNC(=O)CC3)cc21 [Example 21, 6-(3,4-Dihydro-4-methyl-3-oxo-1,4(2H)-benzoxazin-6-yl)-2,3,4,5-tetrahydropyridazin-3-one] | 18 µM | – | 74% | –
CC1CC(=O)NN=C1c1ccc2c(c1)NC(=O)C(C)O2 (stereo not drawn) [Example 26, 6-(3,4-Dihydro-2-methyl-3-oxo-1,4(2H)-benzoxazin-6-yl)-2,3,4,5-tetrahydro-5-methylpyridazin-3-one] | 5 µM | – | 156% | –
CC1CC(=O)NN=C1c1ccc2c(c1)N(C)C(=O)C(C)O2 (stereo not drawn) [Example 27, 6-(3,4-Dihydro-2,4-dimethyl-3-oxo-1,4(2H)-benzoxazin-6-yl)-2,3,4,5-tetrahydro-5-methylpyridazin-3-one] | 6 µM | – | 117% | –
Cc1cc2c(cc1C1=NNC(=O)CC1)NC(=O)CO2 [Example 28, 6-(3,4-Dihydro-7-methyl-3-oxo-1,4(2H)-benzoxazin-6-yl)-2,3,4,5-tetrahydropyridazin-3-one] | 15 µM | – | 46% | –
Cc1cc2c(c(C3=NNC(=O)CC3C)c1)OCCN2 (stereo not drawn) [Example 42, 6-(3,4-Dihydro-6-methyl-1,4(2H)-benzoxazin-8-yl)-2,3,4,5-tetrahydro-5-methylpyridazin-3-one] | – | – | 15% | –
